Data on 15 compounds can be found in patent publication US10479780B2, “Aminopyrazole derivatives” (Chugai Seiyaku Kabushiki Kaisha, priority 2015, dated 2019).

Each structure is given as a SMILES string. Read-outs that look alike come from different tables or passages of the source.

Common to all, as to assay type: biochemical
One assay deals with T1, human Lck enzyme (Homo sapiens, UniProt P06239).
T1 construct: purchased Carna Biosciences, Inc. 08-170
The assay is described as follows: Lck enzyme inhibitory activity (time-resolved fluorometry, biotinylated peptide phosphorylation). The conditions noted are these: read-out: LCK_IC50. Here is the method: (§1) 3. Lck Enzyme Inhibitory Activity Lck inhibitory activity was determined based on activity of inhibiting phosphorylation reaction of a biotinylated peptide (EGPWLEEEEEAYGWMDF) using a human Lck enzyme (manufactured by Carna Biosciences, Inc., cat 08-170). The phosphorylated biotinylated peptide was detected by time-resolved fluorometry using an anti-phosphorylated tyrosine antibody conjugated to europium cryptate, and streptavidin conjugated to XL665, an allophycocyanin derivative. The 50% inhibitory concentration (IC50) was calculated from the inhibition rate relative to the control group without containing the test substance.

For another assay, the target named is T2, human Yes1 enzyme (Homo sapiens, UniProt P07947).
T2 construct: made in house
The assay is described as follows: Yes1 enzyme inhibitory activity (time-resolved fluorometry, biotinylated peptide phosphorylation). The note with it: read-out: YES_IC50. Here is the method:
as §1, with “1. Yes1” for “3. Lck”, “Yes1” for “Lck”, “prepared using a baculovirus expression system.” for “(manufactured by Carna Biosciences, Inc., cat 08-170).”

The next assay addresses T3, human Src enzyme (Homo sapiens, UniProt P12931).
T3 construct: purchased Carna Biosciences, Inc. 08-173
Nature of the assay: Src enzyme inhibitory activity (time-resolved fluorometry, biotinylated peptide phosphorylation). The note with it: read-out: SRC_IC50. The method, then: as §1, with “2. Src” for “3. Lck”, “Src” for “Lck”, “08-173).” for “08-170).”

The mark [1] stands for this setting: biotinylated peptide phosphorylation.

T1 sequence (P06239 whole entry): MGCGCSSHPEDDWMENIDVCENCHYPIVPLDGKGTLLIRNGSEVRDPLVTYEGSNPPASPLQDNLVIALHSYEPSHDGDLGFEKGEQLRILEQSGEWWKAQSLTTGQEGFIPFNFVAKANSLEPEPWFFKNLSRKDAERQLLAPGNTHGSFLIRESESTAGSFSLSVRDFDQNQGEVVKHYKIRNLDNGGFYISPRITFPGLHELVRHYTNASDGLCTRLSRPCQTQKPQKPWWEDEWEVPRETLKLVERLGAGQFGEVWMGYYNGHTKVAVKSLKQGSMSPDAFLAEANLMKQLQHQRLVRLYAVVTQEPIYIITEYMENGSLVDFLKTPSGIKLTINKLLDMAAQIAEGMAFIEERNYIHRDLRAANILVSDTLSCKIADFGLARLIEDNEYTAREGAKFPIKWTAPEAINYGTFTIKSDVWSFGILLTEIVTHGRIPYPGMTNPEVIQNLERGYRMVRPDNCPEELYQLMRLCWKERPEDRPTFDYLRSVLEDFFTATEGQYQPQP
T2 sequence (P07947 whole entry): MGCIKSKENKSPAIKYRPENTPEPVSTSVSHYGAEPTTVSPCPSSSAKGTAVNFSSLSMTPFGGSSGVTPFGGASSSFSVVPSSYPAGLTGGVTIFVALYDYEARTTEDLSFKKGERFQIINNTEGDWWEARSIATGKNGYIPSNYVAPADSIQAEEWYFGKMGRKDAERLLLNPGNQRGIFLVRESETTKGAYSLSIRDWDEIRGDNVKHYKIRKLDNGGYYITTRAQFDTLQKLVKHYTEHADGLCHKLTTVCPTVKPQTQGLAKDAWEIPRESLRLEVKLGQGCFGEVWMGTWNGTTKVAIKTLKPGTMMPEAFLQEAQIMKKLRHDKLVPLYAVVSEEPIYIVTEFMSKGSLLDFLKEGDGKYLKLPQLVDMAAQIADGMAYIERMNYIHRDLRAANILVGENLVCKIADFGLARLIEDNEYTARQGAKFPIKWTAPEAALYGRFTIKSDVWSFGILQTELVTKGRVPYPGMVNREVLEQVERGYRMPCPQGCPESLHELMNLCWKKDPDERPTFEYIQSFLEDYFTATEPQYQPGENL
T3 sequence (P12931 whole entry): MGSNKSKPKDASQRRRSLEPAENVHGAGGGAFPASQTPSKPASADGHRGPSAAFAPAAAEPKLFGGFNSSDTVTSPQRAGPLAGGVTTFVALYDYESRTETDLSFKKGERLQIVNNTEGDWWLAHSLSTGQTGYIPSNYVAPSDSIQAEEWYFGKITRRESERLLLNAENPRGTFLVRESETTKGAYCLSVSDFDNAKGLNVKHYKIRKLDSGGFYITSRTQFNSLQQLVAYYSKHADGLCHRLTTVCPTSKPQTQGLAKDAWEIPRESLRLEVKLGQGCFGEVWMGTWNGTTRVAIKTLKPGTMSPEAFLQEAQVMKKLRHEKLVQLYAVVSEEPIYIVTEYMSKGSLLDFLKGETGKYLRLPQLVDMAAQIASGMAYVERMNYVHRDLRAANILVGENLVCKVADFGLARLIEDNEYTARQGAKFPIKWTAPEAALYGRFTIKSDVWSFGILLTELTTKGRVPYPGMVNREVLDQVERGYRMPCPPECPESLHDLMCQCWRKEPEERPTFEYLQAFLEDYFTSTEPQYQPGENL

On to `Cc1cc2cc(C(=O)c3cnn(-c4ccc(Oc5ncccc5Cl)cc4Cl)c3N)[nH]c2cc1NS(=O)(=O)CCCF` [Example 5-1-063, N-[2-[5-amino-1-[2-chloro-4-(3-chloropyridin-2-yl)oxyphenyl]pyrazole-4-carbonyl]-5-methyl-1H-indol-6-yl]-3-fluoropropane-1-sulfonamide], for which the IC50 at human Lck enzyme turned out to be 29 nM; on human Yes1 enzyme it was 2.8 nM; at human Src enzyme it was 83 nM.

For the compound `COc1cc2cc(C(=O)c3cnn(-c4c(C)cc(Oc5ccccc5F)cc4F)c3N)[nH]c2cc1NS(=O)(=O)CC(=O)N1CCOCC1` [Example 4-10-013, N-[2-[5-amino-1-[2-fluoro-4-(2-fluorophenoxy)-6-methylphenyl]pyrazole-4-carbonyl]-5-methoxy-1H-indol-6-yl]-2-morpholin-4-yl-2-oxoethanesulfonamide], the IC50 amounted to 11 nM on human Lck enzyme (setting [1]), 1.2 nM at human Yes1 enzyme (setting [1]) and 29 nM on human Src enzyme (setting [1]).

Consider `Cc1cc(Oc2c(F)cccc2F)ncc1-n1ncc(C(=O)c2cc3cc(F)c(N4C(=O)NC5(CCOCC5)C4=O)cc3[nH]2)c1N` [Example 5-1-368, 3-[2-[5-amino-1-[6-(2,6-difluorophenoxy)-4-methylpyridin-3-yl]pyrazole-4-carbonyl]-5-fluoro-1H-indol-6-yl]-8-oxa-1,3-diazaspiro[4.5] decane-2,4-dione], for which the IC50 is 8.7 nM on human Lck enzyme, 3.8 nM on human Yes1 enzyme and 62 nM at human Src enzyme.

For the compound `Cc1cc(Oc2c(F)cccc2F)ncc1-n1ncc(C(=O)c2cc3cc(F)c(N4C(=O)[C@@H]5CCCN5C4=O)cc3[nH]2)c1N` [Example 5-1-432, (7aS)-2-[2-[5-amino-1-[6-(2,6-difluorophenoxy)-4-methylpyridin-3-yl]pyrazole-4-carbonyl]-5-fluoro-1H-indol-6-yl]-5,6,7,7a-tetrahydropyrrolo[1,2-c]imidazole-1,3-dione], the IC50 is 7.7 nM on human Lck enzyme (setting [1]), 3.8 nM on human Yes1 enzyme (setting [1]) and 96 nM at human Src enzyme (setting [1]).

Consider `Cc1cc2cc(C(=O)c3cnn(-c4cnc(Oc5ccccc5F)cc4C)c3N)[nH]c2cc1NS(C)(=O)=O` [Example 4-2-061, N-(2-(5-Amino-1-(6-(2-fluorophenoxy)-4-methylpyridin-3-yl)-1H-pyrazole-4-carbonyl)-5-methyl-1H-indol-6-yl)methanesulfonamide], for which the IC50 worked out at 6.5 nM at human Lck enzyme (setting [1]), 0.52 nM at human Yes1 enzyme (setting [1]) and 31 nM on human Src enzyme (setting [1]).

Consider `Cc1cc2cc(C(=O)c3cnn(-c4ccc(Oc5ccccc5F)cc4C)c3N)[nH]c2cc1NS(=O)(=O)C1CCOCC1` [Example 5-1-347, N-[2-[5-amino-1-[4-(2-fluorophenoxy)-2-methylphenyl]pyrazole-4-carbonyl]-5-methyl-1H-indol-6-yl]oxane-4-sulfonamide], for which the figures for the IC50 on human Lck enzyme, on human Yes1 enzyme and on human Src enzyme were 11 nM, 0.87 nM and 46 nM, respectively.

Turning to `CC(C)N1CCC(c2cc3cc(C(=O)c4cnn(-c5ccc(Oc6ccccc6Cl)cc5)c4N)[nH]c3cc2F)CC1` [Example 5-1-001, [5-amino-1-[4-(2-chlorophenoxy)phenyl]pyrazol-4-yl]-[6-fluoro-5-(1-propan-2-ylpiperidin-4-yl)-1H-indol-2-yl]methanone], the IC50 on human Lck enzyme came out at 2.9 nM; at human Yes1 enzyme, 1.1 nM; on human Src enzyme it was 7.6 nM.

With `Cc1cc(Oc2c(F)cccc2F)ncc1-n1ncc(C(=O)c2cc3cc(OCC(F)F)c(N4CC(C)(C)NS4(=O)=O)cc3[nH]2)c1N` [Example 5-1-321, [5-amino-1-[6-(2,6-difluorophenoxy)-4-methylpyridin-3-yl]pyrazol-4-yl]-[5-(2,2-difluoroethoxy)-6-(4,4-dimethyl-1,1-dioxo-1,2,5-thiadiazolidin-2-yl)-1H-indol-2-yl]methanone], the values for the IC50 at human Lck enzyme, at human Yes1 enzyme and at human Src enzyme were 34 nM, 5.8 nM and 130 nM, respectively.

For `Cc1cnc(F)c(S(=O)(=O)Nc2cc3[nH]c(C(=O)c4cnn(-c5cnc(Oc6c(F)cccc6F)cc5C)c4N)cc3cc2OCC(F)F)c1` [Example 5-1-571, N-[2-[5-amino-1-[6-(2,6-difluorophenoxy)-4-methylpyridin-3-yl]pyrazole-4-carbonyl]-5-(2,2-difluoroethoxy)-1H-indol-6-yl]-2-fluoro-5-methylpyridine-3-sulfonamide], the IC50 is 30 nM at human Lck enzyme (setting [1]), 2.2 nM at human Yes1 enzyme (setting [1]) and 540 nM on human Src enzyme (setting [1]).

As for `Cc1cc(Oc2ccccc2F)ccc1-n1ncc(C(=O)c2cc3cc(OCC(F)F)c(N4C(=O)C(C)(C)NC4=S)cc3[nH]2)c1N` [Example 4-23-037, 3-[2-[5-amino-1-[4-(2-fluorophenoxy)-2-methylphenyl]pyrazole-4-carbonyl]-5-(2,2-difluoroethoxy)-1H-indol-6-yl]-5,5-dimethyl-2-sulfanylideneimidazolidin-4-one], the IC50 is 6.7 nM on human Lck enzyme (setting [1]), 0.76 nM on human Yes1 enzyme (setting [1]) and 12 nM at human Src enzyme (setting [1]).

Regarding `Cc1cc(Oc2ccccc2F)ccc1-n1ncc(C(=O)c2cc3cc(F)c(NS(C)(=O)=O)cc3[nH]2)c1N` [Example 4-1-002, N-[2-[5-amino-1-[4-(2-fluorophenoxy)-2-methylphenyl]pyrazole-4-carbonyl]-5-fluoro-1H-indol-6-yl]methanesulfonamide], the IC50 at human Lck enzyme (setting [1]) came out at 7.6 nM; on human Yes1 enzyme (setting [1]) it was 0.52 nM; at human Src enzyme (setting [1]), 21 nM.

For the compound `Cc1cc(Oc2ccccc2F)ncc1-n1ncc(C(=O)c2cc3cc(F)c(NS(=O)(=O)c4cccc(C#N)n4)cc3[nH]2)c1N` [Example 5-1-539, N-[2-[5-amino-1-[6-(2-fluorophenoxy)-4-methylpyridin-3-yl]pyrazole-4-carbonyl]-5-fluoro-1H-indol-6-yl]-6-cyanopyridine-2-sulfonamide], the IC50 at human Lck enzyme (setting [1]) came out at 220 nM; on human Yes1 enzyme (setting [1]), 11 nM; at human Src enzyme (setting [1]) it was 800 nM.

`Cc1cc(Oc2cccc(F)c2F)ccc1-n1ncc(C(=O)c2cc3cc(F)c(NS(N)(=O)=O)cc3[nH]2)c1N` [Example 4-20-002, 2-[5-amino-1-[4-(2,3-difluorophenoxy)-2-methylphenyl]pyrazole-4-carbonyl]-5-fluoro-6-(sulfamoylamino)-1H-indole]: the IC50 at human Lck enzyme (setting [1]) was found to be 8.3 nM; at human Yes1 enzyme (setting [1]), 1 nM; at human Src enzyme (setting [1]), 50 nM.

With `Cc1cc2cc(C(=O)c3cnn(-c4cnc(Oc5c(F)cccc5F)cc4C)c3N)[nH]c2cc1NS(=O)(=O)c1cccc(Cl)n1` [Example 5-1-526, N-[2-[5-amino-1-[6-(2,6-difluorophenoxy)-4-methylpyridin-3-yl]pyrazole-4-carbonyl]-5-methyl-1H-indol-6-yl]-6-chloropyridine-2-sulfonamide], the IC50 at human Lck enzyme (setting [1]) is 250 nM; at human Yes1 enzyme (setting [1]), 8 nM; at human Src enzyme (setting [1]) it was 620 nM.

Turning to `Cc1cc(Oc2c(F)cccc2F)ncc1-n1ncc(C(=O)c2cc3cc(F)c(N4CCC(N5CCOCC5)CC4)cc3[nH]2)c1N` [Example 5-1-112, [5-amino-1-[6-(2,6-difluorophenoxy)-4-methylpyridin-3-yl]pyrazol-4-yl]-[5-fluoro-6-(4-morpholin-4-ylpiperidin-1-yl)-1H-indol-2-yl] methanone], the figures for the IC50 at human Lck enzyme, at human Yes1 enzyme and on human Src enzyme were 1.7 nM, 0.81 nM and 26 nM, respectively.
